Molecular target: Protein cereblon/Epidermal growth factor receptor (Homo sapiens, UniProt P00533+Q96SW2, L858R/T790M)
Assay: Protac activity at native cereblon/EGFR T790M/L858R mutant (unknown origin) transfected in mouse Baf3 cells assessed as reduction in cell proliferation by MTS assay
Type: cell-based

Protein cereblon/Epidermal growth factor receptor, sequence (P00533 25-1210 T790M/L858R limits assumed, stated change not applied): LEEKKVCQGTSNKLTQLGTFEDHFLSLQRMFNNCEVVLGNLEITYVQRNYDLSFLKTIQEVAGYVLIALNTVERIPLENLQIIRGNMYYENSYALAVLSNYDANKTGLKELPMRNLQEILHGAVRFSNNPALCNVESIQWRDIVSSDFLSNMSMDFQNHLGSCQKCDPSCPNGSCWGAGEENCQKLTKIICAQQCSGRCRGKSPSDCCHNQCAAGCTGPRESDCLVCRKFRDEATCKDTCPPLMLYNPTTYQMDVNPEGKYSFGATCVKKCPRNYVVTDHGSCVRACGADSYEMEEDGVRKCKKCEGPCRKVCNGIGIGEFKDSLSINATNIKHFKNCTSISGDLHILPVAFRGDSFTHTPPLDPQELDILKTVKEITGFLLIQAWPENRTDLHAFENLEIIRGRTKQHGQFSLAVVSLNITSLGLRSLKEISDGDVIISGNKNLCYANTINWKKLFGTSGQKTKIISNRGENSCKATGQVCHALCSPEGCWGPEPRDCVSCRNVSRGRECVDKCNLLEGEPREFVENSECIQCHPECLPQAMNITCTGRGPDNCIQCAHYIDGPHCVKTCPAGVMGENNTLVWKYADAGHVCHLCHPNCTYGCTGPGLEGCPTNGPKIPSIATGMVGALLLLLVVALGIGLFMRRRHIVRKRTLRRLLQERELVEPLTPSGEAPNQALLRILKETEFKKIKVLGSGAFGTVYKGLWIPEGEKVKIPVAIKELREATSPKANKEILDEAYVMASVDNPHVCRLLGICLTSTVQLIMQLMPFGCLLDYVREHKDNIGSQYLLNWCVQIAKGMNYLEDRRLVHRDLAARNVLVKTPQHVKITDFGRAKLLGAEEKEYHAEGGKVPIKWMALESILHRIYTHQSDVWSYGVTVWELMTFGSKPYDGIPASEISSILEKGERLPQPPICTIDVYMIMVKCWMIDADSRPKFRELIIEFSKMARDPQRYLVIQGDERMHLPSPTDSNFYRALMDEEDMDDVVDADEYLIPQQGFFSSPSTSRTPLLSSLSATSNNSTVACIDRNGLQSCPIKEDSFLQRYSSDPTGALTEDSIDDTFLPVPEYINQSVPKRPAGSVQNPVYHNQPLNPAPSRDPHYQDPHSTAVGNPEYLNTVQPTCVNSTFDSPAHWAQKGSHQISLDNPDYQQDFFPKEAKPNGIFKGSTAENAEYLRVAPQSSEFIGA
Protein cereblon/Epidermal growth factor receptor, sequence (Q96SW2 whole entry, stated change not applied): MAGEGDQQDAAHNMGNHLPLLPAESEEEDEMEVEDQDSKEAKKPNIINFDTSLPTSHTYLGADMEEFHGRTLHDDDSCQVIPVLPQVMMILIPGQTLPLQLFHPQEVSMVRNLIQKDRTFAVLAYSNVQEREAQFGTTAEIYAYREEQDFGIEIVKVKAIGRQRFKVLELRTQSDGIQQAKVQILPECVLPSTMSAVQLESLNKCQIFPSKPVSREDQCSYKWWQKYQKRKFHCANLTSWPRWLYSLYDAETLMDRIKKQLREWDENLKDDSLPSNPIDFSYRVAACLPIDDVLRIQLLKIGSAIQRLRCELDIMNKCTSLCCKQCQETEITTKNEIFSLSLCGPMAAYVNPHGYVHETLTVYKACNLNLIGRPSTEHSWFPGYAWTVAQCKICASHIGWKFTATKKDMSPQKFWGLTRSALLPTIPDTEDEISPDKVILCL

Question: With `O=C1CCC(N2C(=O)c3cccc(NCCOCCOCCOCCN4CCN(c5ccc(-c6ccc7c(c6)C(=O)N(C(C(=O)Nc6nccs6)c6ccccc6)C7)cc5)CC4)c3C2=O)C(=O)N1` (centres undefined) as the compound, how does the EC50 read?
Answer: < 500 nM

Question: How did the EC50 turn out when `O=C1CCC(N2C(=O)c3cccc(NCCOCCOCCOCCC(=O)N4CCN(c5ccc(-c6ccc7c(c6)C(=O)N(C(C(=O)Nc6nccs6)c6ccccc6)C7)cc5)CC4)c3C2=O)C(=O)N1` (centres undefined) was run?
Answer: < 500 nM

Question: For `O=C1CCC(N2C(=O)c3cccc(NCCOCCOCCOCCOCCN4CCN(c5ccc(-c6ccc7c(c6)C(=O)N(C(C(=O)Nc6nccs6)c6ccccc6)C7)cc5)CC4)c3C2=O)C(=O)N1` (centres undefined), which EC50 is on record?
Answer: < 500 nM

Question: How did the EC50 turn out when `O=C1CCC(N2C(=O)c3cccc(NCCOCCOCCOCCN4CCN(c5ccc(-c6ccc7c(c6)C(=O)N(C(C(=O)Nc6nccs6)c6ccccc6)C7)cn5)CC4)c3C2=O)C(=O)N1` (centres undefined) was run?
Answer: < 500 nM

Reference: ChEMBL document CHEMBL4304788, “Treatment of Cancer and Alzheimer's Disease by PROTAC Degradation of EGFR” (ACS Med Chem Lett, 2019)
